Measured values: PubChem BioAssay (NCI)
Where “and” joins values, the source holds several entries; their conditions need not be identical. Equal values may be shown once.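 Five concentrations, 48 hours, 96-well plates. GI50 is the concentration that inhibits growth by half. TGI marks complete inhibition of growth.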

Columns and labels:
Assay in all cases: growth of human tumour cells (NCI), 48 h
[1] = test system: SNB-19 CNS
[2] = test system: SR leukemia
[3] = test system: SK-MEL-5 melanoma
[4] = test system: HS 578T breast
[5] = test system: U251 CNS
[6] = test system: NCI-H522 lung
[7] = test system: BT-549 breast
[8] = test system: SF-295 CNS
[9] = test system: OVCAR-5 ovarian
[10] = test system: TK-10 renal

| Compound | GI50 [1] [µM] | TGI [1] [µM] | GI50 [2] [µM] | TGI [2] [µM] | GI50 [3] [nM] | TGI [3] | GI50 [4] [µM] | TGI [4] [µM] | GI50 [5] [nM] | TGI [5] | GI50 [6] [µM] | TGI [6] | GI50 [7] [µM] | TGI [7] [µM] | GI50 [8] [nM] | TGI [8] | GI50 [9] [µM] | TGI [9] | GI50 [10] [µM] | TGI [10] [µM] |
| --- | --- | --- | --- | --- | --- | --- | --- | --- | --- | --- | --- | --- | --- | --- | --- | --- | --- | --- | --- | --- |
| C=CCN(CC=C)C(=O)[C@H](CC)[C@@H]1CC[C@@H](C)[C@@H]([C@H](C)[C@@H](O)[C@@H](C)C(=O)[C@H](CC)C2O[C@]3(C=C[C@@H](O)[C@]4(CC[C@@](C)([C@H]5CC[C@](O)(CC)[C@H](C)O5)O4)O3)[C@H](C)C[C@@H]2C)O1 (stereo partly specified) | 3.08 | > 100 | 2.41 | 7.1 | 1720 | 3.15 µM | 2.22 | 6.27 | 2780 | 10.1 µM | 2.08 | 5.68 µM | 3.03 | 12.3 | 1870 | 5.23 µM | 2.25 | 7.26 µM | 3.65 | > 100 |
| N#CC1C(N)=NNC12Nc1ccccc1S2 (stereo unspecified) | 28.6 | > 100 | 8.81 | 29.9 | 8930 | 28.7 µM | 17.4 | 71.7 | 5840 | 20.3 µM | 7.8 | 29.7 µM | 18.7 | 57.4 | 17200 | 64.2 µM | 31.5 | 76.5 µM | 41.5 | > 100 |
| CSC1=Nc2c(c(C)c(-c3ccccc3)n2COC(CO)CO)C2=NC(=O)CN12 | > 100 | > 100 | > 100 | > 100 | > 100000 | > 100 µM | > 100 | > 100 | > 100000 | > 100 µM | > 100 | > 100 µM | > 100 | > 100 | > 100000 | > 100 µM | > 100 | > 100 µM | > 100 | > 100 |
| CN(C)c1nc(N)c(C#N)c(C#N)c1C#N | – | > 10 | – | > 10 | – | > 10 µM | – | > 10 | – | > 10 µM | – | 3.8 µM | – | > 10 | – | > 10 µM | – | > 10 µM | – | > 10 |
| Nc1nc(C(=O)O)c(N=Nc2ccccc2)c(=O)[nH]1 | – | > 100 | – | > 100 | – | > 100 µM | – | > 100 | – | > 100 µM | – | > 100 µM | – | > 100 | – | > 100 µM | – | > 100 µM | – | > 100 |
| Nc1nc(-c2ccc(Cl)cc2)nc2c1sc(=S)n2-c1ccccc1 | 3.55 | 10.1 | 5.82 | > 100 | 2910 | 10.1 µM | 3.31 | 9.39 | 3500 | 11.9 µM | 5.64 | > 100 µM | 6.5 | > 100 | 2720 | 7.62 µM | 4.98 | 20.5 µM | 2.22 | 5.9 |
| NCc1ccc(-c2nc(-c3ccc(Cl)c(O)c3)c(-c3ccncc3)[nH]2)cc1 | > 25 | > 25 | > 25 | > 25 | > 15400 | > 25 µM | 11.9 | > 25 | > 25000 | > 25 µM | > 25 | > 25 µM | > 25 | > 25 | > 25000 | > 25 µM | > 25 | > 25 µM | > 25 | > 25 |
| COc1ccc(-c2[nH]c3ccccc3c2/C=C(\C#N)S(=O)(=O)c2ccccc2)cc1 | 0.844 | > 100 | 0.344 | 4.9 | 343 | 2.73 µM | 0.671 | > 46 | 462 | > 29.4 µM | 1.78 | – | 1.63 | > 76 | 487 | – | 1.84 | > 100 µM | 3.65 | > 100 |
| COc1ccc(/C=N\Nc2nc(SCC(C)C)nc(-c3ccc(OC)cc3)c2C#N)cc1 | 6.81 | 33.3 | 8.69 | 96 | 13600 | 51.2 µM | 3.98 | 30.9 | 988 | 14.9 µM | 11.3 | 63.2 µM | 15.7 | 52.5 | 8580 | 28 µM | 20.4 | > 100 µM | 2.02 | 8.62 |
| O=S(=O)(NCCCNc1cc(-c2cn(-c3ccccc3)nc2-c2cccc(O)c2)ccn1)c1ccc(F)cc1 | 4.67 | 52.3 | 2.08 | 6.09 | 3060 | 10.1 µM | 2.71 | 9.22 | 2970 | 10.3 µM | 2.29 | 7.44 µM | 2.28 | 7.78 | 1950 | 4.09 µM | 3.33 | 33.5 µM | 7.41 | 31.5 |
| C/C(=N\NC(=S)N1CCN(c2ccccn2)CC1)c1ncccn1 | – | 19 | 0.0622 | 12.3 | 269 | 3.2 µM and 14.9 µM | 3.01 | 31.2 | 79.6 | 5.45 µM and 11.8 µM | 0.0859 | 1.45 µM and 2.06 µM | 0.0936 | 18.8 | 93.4 | 5.83 µM and 6.76 µM | – | 4.77 µM and 21.5 µM | 1.71 | 18.5 |
